Measurements from publication PMC5770468, “Cardiac glycoside/aglycones inhibit HIV-1 gene expression by a mechanism requiring MEK1/2-ERK1/2 signaling” (Scientific Reports, 2018).

Test system: HIV-1 Tat (p16/p14)
Assay: Immunoblot of HIV-1 Tat (p16/p14) in HeLa rtTA-HIV-ΔMls cells
Format: cell-based
Conditions: ~IC80 of CS, relative to DMSO (+Dox)
Method: Figure 3 CSs reduce expression of essential HIV-1 structural and regulatory proteins. HeLa rtTA-HIV-ΔMls cells were treated with ~IC80s of CSs (per Methods), 100 nM of RIDK-21 or -27, or DMSO for 4 h prior to Dox induction for 20 h as indicated. Cell extracts were analyzed by immunoblot of (a) HIV-1 structural proteins: Env (gp160/gp120) and Gag (p41/p24), and (b–d) viral regulatory factors: Rev (p19, b) and Tat (p16/p14, c,d). (d) Graph quantitating Tat expression. Results from (a–d) are from n ≥ 3, mean, s.e.m. […] (a and d) Lanes were cropped and assembled from the same blot per box from Supplementary Figure S4a,b and c, respectively.
To monitor HIV-1 gene expression or replication, Gag release into cell culture supernatants were assayed by ELISA using a p24^CA antigen capture assay kit (AIDS & Cancer Virus Program, NCI-Frederick, Frederick, MD USA). […] For analysis of HIV-1 and SR protein expression (and phosphorylation states with calf intestinal alkaline phosphatase treatments), cells were lysed and analyzed by western blot as previously outlined. […] Activation of MAPKs was determined by western blot quantitation and calculation of phospho/total protein levels. […] Stain-Free™ gels were casted and proteins were detected as described in 10% TGX-Stain-Free FastCast Acrylamide Kit from Bio-Rad (#161-0183). […]

C[C@]12CC[C@H](O)C[C@H]1CC[C@@H]1[C@@H]2CC[C@]2(C)[C@@H](C3=CC(=O)OC3)CC[C@]12O [Digitoxigenin]
p16 Tat expression: 57 % of control
